Test results as given in PubChem BioAssay AID330 (DTP/NCI, 2004).
Where “and” joins values, the source holds several entries; their conditions need not be identical. Equal entries are not always repeated. Inconclusive results and toxic doses are left out.

Test system: P388 leukemia ip, CD2F1 mice, survival T/C
Test: NCI In Vivo Anticancer Drug Screen. Data for tumor model P388 Leukemia (intraperitoneal) in CD2F1 (CDF1) mice
Details: endpoint: median survival time, higher = longer survival
Procedure, shortened: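 Mice carrying the transplanted tumor received test compound or vehicle. Survival was recorded in each group, and the value is the treated-group measurement divided by that of the vehicle-treated control group.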

[1] = dose: 25.0 mg/kg/injection, schedule: Q01DX009 (ip), vehicle: saline with Tween-80
[2] = dose: 50.0 mg/kg/injection, schedule: Q01DX009 (ip), vehicle: saline with Tween-80
[3] = dose: 100.0 mg/kg/injection, schedule: Q04DX003 (ip), vehicle: saline with Tween-80
[4] = dose: 25.0 mg/kg/injection, schedule: Q01DX009 (ip), vehicle: saline
[5] = dose: 50.0 mg/kg/injection, schedule: Q01DX009 (ip), vehicle: saline
[6] = dose: 25.0 mg/kg/injection, schedule: Q01DX001 (ip), vehicle: saline with Tween-80
[7] = dose: 50.0 mg/kg/injection, schedule: Q01DX001 (ip), vehicle: saline with Tween-80
[8] = dose: 100.0 mg/kg/injection, schedule: Q01DX001 (ip), vehicle: saline with Tween-80
[9] = dose: 200.0 mg/kg/injection, schedule: Q01DX001 (ip), vehicle: saline with Tween-80
[10] = dose: 1.56 mg/kg/injection, schedule: Q01DX009 (ip), vehicle: saline
[11] = dose: 3.12 mg/kg/injection, schedule: Q01DX009 (ip), vehicle: saline
[12] = dose: 6.25 mg/kg/injection, schedule: Q01DX009 (ip), vehicle: saline
[13] = dose: 50.0 mg/kg/injection, schedule: Q01DX009 (ip), vehicle: Klucel (hydroxypropylcellulose) (HPC)
[14] = dose: 100.0 mg/kg/injection, schedule: Q01DX009 (ip), vehicle: Klucel (hydroxypropylcellulose) (HPC)
[15] = dose: 200.0 mg/kg/injection, schedule: Q01DX009 (ip), vehicle: Klucel (hydroxypropylcellulose) (HPC)
[16] = dose: 60.0 mg/kg/injection, schedule: Q01DX005 (ip), vehicle: saline with Tween-80
[17] = dose: 120.0 mg/kg/injection, schedule: Q01DX005 (ip), vehicle: saline with Tween-80

CNC(=O)OCc1nc(SC)n(Cc2ccccc2)c1COC(=O)NC was tested, and the T/C (dose: 12.5 mg/kg/injection, schedule: Q01DX005 (ip), vehicle: saline with Tween-80) was 100 % of control, the T/C (dose: 25.0 mg/kg/injection, schedule: Q01DX005 (ip), vehicle: saline with Tween-80) was 110 % of control and the T/C (dose: 50.0 mg/kg/injection, schedule: Q01DX005 (ip), vehicle: saline with Tween-80) was 110 % of control and 116 % of control. For the same compound, the T/C (dose: 100.0 mg/kg/injection, schedule: Q01DX005 (ip), vehicle: saline with Tween-80) was 106 % of control and 116 % of control.

In the case of S=C(S)N1CCCNCC1 (tested in a mixture with another compound), the T/C (dose: 12.5 mg/kg/injection, schedule: Q01DX009 (ip), vehicle: saline with Tween-80) is reported as 101 % of control and 89 % of control, the T/C [1] is reported as 92 % of control and 97 % of control and the T/C [2] is reported as 86 % of control and 97 % of control.

With [O-]c1nn(-c2ccccc2)n[n+]1-c1ccccc1 the T/C (dose: 100.0 mg/kg/injection, schedule: Q01DX001 (ip), vehicle: Klucel (hydroxypropylcellulose) (HPC)) was 97 % of control, the T/C (dose: 200.0 mg/kg/injection, schedule: Q01DX001 (ip), vehicle: Klucel (hydroxypropylcellulose) (HPC)) was 100 % of control and the T/C (dose: 400.0 mg/kg/injection, schedule: Q01DX001 (ip), vehicle: Klucel (hydroxypropylcellulose) (HPC)) was 94 % of control.

With CN(C)CC(CN(C)C)C(=O)c1ccc(OC2OC(CO)C(O)C(O)C2O)cc1 (stereo not given) the T/C (dose: 60.0 mg/kg/injection, schedule: Q01DX005 (ip), vehicle: saline) was 103 % of control, the T/C (dose: 120.0 mg/kg/injection, schedule: Q01DX005 (ip), vehicle: saline) was 99 % of control and the T/C (dose: 240.0 mg/kg/injection, schedule: Q01DX005 (ip), vehicle: saline) was 105 % of control.

In the case of Nc1nc(SCc2ccccc2Cl)c2[nH]cnc2n1, the T/C [3] is reported as 100 % of control.

In the case of C[N+]1(CC(=O)O)C2CCC1CC(O)C2 (stereo not given), the T/C [4] is reported as 108 % of control, the T/C [5] is reported as 98 % of control and 100 % of control and the T/C (dose: 100.0 mg/kg/injection, schedule: Q01DX009 (ip), vehicle: saline) is reported as 101 % of control. The T/C (dose: 200.0 mg/kg/injection, schedule: Q01DX009 (ip), vehicle: saline) was 101 % of control and 96 % of control.

With CSc1nc(C)nc2sc(CO)nc12 the T/C (dose: 100.0 mg/kg/injection, schedule: Q04DX002 (ip), vehicle: suspension in saline) was 97 % of control, the T/C (dose: 200.0 mg/kg/injection, schedule: Q04DX002 (ip), vehicle: suspension in saline) was 97 % of control and the T/C (dose: 400.0 mg/kg/injection, schedule: Q04DX002 (ip), vehicle: suspension in saline) was 96 % of control.

For CC(C)=CCC(OC(=O)C=C(C)C)c1cc(O)c2c(O)ccc(O)c2c1O.[Mn] (stereo not given), the T/C [6] was 111 % of control, the T/C [7] was 108 % of control and the T/C [8] was 111 % of control and 124 % of control. The T/C [9] was 124 % of control.

Cc1c(-c2ccccc2)ccnc1/C=N/NC(=S)Nc1ccccc1 was tested, and the T/C [10] was 89 % of control, the T/C [11] was 92 % of control and the T/C [12] was 88 % of control and 95 % of control. For the same compound, the T/C [1] was 89 % of control, the T/C [2] was 89 % of control and the T/C [5] was 86 % of control.

COC1(OC)C2C(Br)=C(Br)C1C1CCC/C=C\CC12 (stereo not given) was tested, and the T/C (dose: 100.0 mg/kg/injection, schedule: Q04DX002 (ip), vehicle: saline with Tween-80) was 103 % of control, the T/C (dose: 200.0 mg/kg/injection, schedule: Q04DX002 (ip), vehicle: saline with Tween-80) was 103 % of control and the T/C (dose: 400.0 mg/kg/injection, schedule: Q04DX002 (ip), vehicle: saline with Tween-80) was 109 % of control.

With CCCCCCCCC(=O)OCCN(CCOC(=O)CCCCCCCC)C(=O)COC(=O)CCCCCCCC the T/C [13] was 102 % of control, the T/C [14] was 113 % of control and the T/C [15] was 93 % of control.

NC(=O)c1c(Cl)nc2sccn12 was tested, and the T/C [6] was 107 % of control, the T/C [7] was 104 % of control and the T/C [8] was 101 % of control and 112 % of control.

With CSc1nc(NC2OC(CO)C(O)C(O)C2O)c(Cl)c(=O)n1C (stereo not given) the T/C (dose: 15.0 mg/kg/injection, schedule: Q01DX005 (ip), vehicle: saline with Tween-80) was 94 % of control, the T/C (dose: 30.0 mg/kg/injection, schedule: Q01DX005 (ip), vehicle: saline with Tween-80) was 95 % of control and the T/C [16] was 91 % of control and 97 % of control. The T/C [17] was 100 % of control.

In the case of Cc1cc(O)c(C(c2cccnc2)c2c(O)cc(C)[nH]c2=O)c(=O)[nH]1, the T/C [2] is reported as 104 % of control, the T/C (dose: 100.0 mg/kg/injection, schedule: Q01DX009 (ip), vehicle: saline with Tween-80) is reported as 98 % of control and the T/C (dose: 200.0 mg/kg/injection, schedule: Q01DX009 (ip), vehicle: saline with Tween-80) is reported as 99 % of control.

For COC(=O)c1ccccc1N1C(=O)C=CC1=O, the T/C (dose: 6.25 mg/kg/injection, schedule: Q04DX003 (ip), vehicle: saline with Tween-80) was 92 % of control and the T/C (dose: 12.5 mg/kg/injection, schedule: Q04DX003 (ip), vehicle: saline with Tween-80) was 92 % of control.

O=C(NC1CCCCC1)Oc1ccccc1-c1ccccc1 was tested, and the T/C [8] was 100 % of control, the T/C [9] was 100 % of control and the T/C (dose: 400.0 mg/kg/injection, schedule: Q01DX001 (ip), vehicle: saline with Tween-80) was 100 % of control.

CC1=CC(=O)C(O)C2(C)C1CC1OC(=O)C=C3C(C)(C4OC(=O)CC4CO)CC(O)C2C31C (stereo not given) was tested, and the T/C (dose: 2.5 mg/kg/injection, schedule: Q01DX009 (ip), vehicle: saline + alcohol) was 92 % of control, the T/C (dose: 5.0 mg/kg/injection, schedule: Q01DX009 (ip), vehicle: saline + alcohol) was 98 % of control and the T/C (dose: 10.0 mg/kg/injection, schedule: Q01DX009 (ip), vehicle: saline + alcohol) was 108 % of control. The T/C (dose: 20.0 mg/kg/injection, schedule: Q01DX009 (ip), vehicle: saline + alcohol) was 101 % of control.

In the case of O=[N+]([O-])c1ccc(N2N=NC(CN3CCOCC3)C2N2CCOCC2)cc1 (stereo not given), the T/C (dose: 60.0 mg/kg/injection, schedule: Q01DX005 (ip), vehicle: Klucel (hydroxypropylcellulose) (HPC)) is reported as 111 % of control, the T/C (dose: 120.0 mg/kg/injection, schedule: Q01DX005 (ip), vehicle: Klucel (hydroxypropylcellulose) (HPC)) is reported as 117 % of control and the T/C (dose: 240.0 mg/kg/injection, schedule: Q01DX005 (ip), vehicle: Klucel (hydroxypropylcellulose) (HPC)) is reported as 118 % of control.

In the case of CC(C)[CH2][Ge]([Cl])([Cl])[Cl], the T/C (dose: 0.78 mg/kg/injection, schedule: Q01DX009 (ip), vehicle: saline) is reported as 103 % of control, the T/C [10] is reported as 106 % of control and the T/C [11] is reported as 94 % of control. For the same compound, the T/C [12] was 119 % of control.

Clc1cccc(N(C2=NCCS2)C2=NCCS2)c1 was tested, and the T/C (dose: 25.0 mg/kg/injection, schedule: Q01DX009 (ip), vehicle: Klucel (hydroxypropylcellulose) (HPC)) was 107 % of control, the T/C [13] was 104 % of control and the T/C [14] was 107 % of control. For the same compound, the T/C [15] was 104 % of control.

With CCCCc1c(OS(=O)(=O)c2ccc(C)cc2)c(C#N)c2[nH]c3ccccc3n2c1=O the T/C [16] was 91 % of control, the T/C [17] was 96 % of control and the T/C (dose: 240.0 mg/kg/injection, schedule: Q01DX005 (ip), vehicle: saline with Tween-80) was 89 % of control.

With CCCCOC(=O)C(c1ccccc1)C1(C)Sc2ccccc2NC1=O (stereo not given) the T/C (dose: 12.5 mg/kg/injection, schedule: Q01DX001 (ip), vehicle: saline with Tween-80) was 95 % of control, the T/C [6] was 96 % of control and the T/C [7] was 98 % of control.

CC(=O)C(C)S(=O)(=O)O (stereo not given) was tested, and the T/C (dose: 100.0 mg/kg/injection, schedule: Q01DX001 (ip), vehicle: saline) was 106 % of control, the T/C (dose: 200.0 mg/kg/injection, schedule: Q01DX001 (ip), vehicle: saline) was 106 % of control and the T/C (dose: 400.0 mg/kg/injection, schedule: Q01DX001 (ip), vehicle: saline) was 106 % of control.

For CN=C(C)Nc1ccccc1OC, the T/C (dose: 12.5 mg/kg/injection, schedule: Q01DX009 (ip), vehicle: saline) was 111 % of control, the T/C [4] was 114 % of control and the T/C [5] was 113 % of control and 97 % of control.

With c1ccc2c(c1)O[As](O[As]1Oc3ccccc3O1)O2 the T/C (dose: 2.5 mg/kg/injection, schedule: Q01DX009 (ip), vehicle: saline with Tween-80) was 106 % of control, the T/C (dose: 5.0 mg/kg/injection, schedule: Q01DX009 (ip), vehicle: saline with Tween-80) was 122 % of control and the T/C (dose: 20.0 mg/kg/injection, schedule: Q01DX009 (ip), vehicle: saline with Tween-80) was 161 % of control.

N#Cc1cnc2nc1NCCCCCCC2 was tested, and the T/C (dose: 25.0 mg/kg/injection, schedule: Q04DX003 (ip), vehicle: saline with Tween-80) was 105 % of control, the T/C (dose: 50.0 mg/kg/injection, schedule: Q04DX003 (ip), vehicle: saline with Tween-80) was 98 % of control and the T/C [3] was 100 % of control.
